In one data set the test system is inflammation. The source says:
Another exemplary metal complex is disodium monozinc (II) citrate dihydrate, sold under the tradename MZC™ by National Research Laboratories, Ltd. of Cincinnati, Ohio.

For data set [1] the following is noted: zinc salt; cited from earlier work.
In a further data set the test system is normal cells. As to conditions: cited from earlier work.
The next data set concerns viruses. As to conditions: cited from earlier work.

The values below come from patent US20060088477A1 (priority 2004, published 2006).

In the case of “disodium monozinc (II) citrate dihydrate [MZC]”, the anti-inflammatory performance entry with inflammation was “dramatic anti-inflammatory performance”.
Regarding `CC(=O)[O-].CC(=O)[O-].[Zn+2]` [zinc acetate], the pH entry in data set [1] was “about 5”. Further, the “toxicity to normal cells” value in the data set on normal cells is listed as “quite toxic to normal cells”. Besides, the toxicity to viruses result in the data set on viruses was “very toxic to viruses”.
